One molecule from BindingDB's records for doi:10.1073/pnas.97.2.925 (Vanderbilt University School of Medicine, 2000) can be followed below.

Experiment [1] addresses T1, Prostaglandin G/H synthase 1 (Ovis aries, UniProt P05979).
T1 sequence (P05979 whole entry): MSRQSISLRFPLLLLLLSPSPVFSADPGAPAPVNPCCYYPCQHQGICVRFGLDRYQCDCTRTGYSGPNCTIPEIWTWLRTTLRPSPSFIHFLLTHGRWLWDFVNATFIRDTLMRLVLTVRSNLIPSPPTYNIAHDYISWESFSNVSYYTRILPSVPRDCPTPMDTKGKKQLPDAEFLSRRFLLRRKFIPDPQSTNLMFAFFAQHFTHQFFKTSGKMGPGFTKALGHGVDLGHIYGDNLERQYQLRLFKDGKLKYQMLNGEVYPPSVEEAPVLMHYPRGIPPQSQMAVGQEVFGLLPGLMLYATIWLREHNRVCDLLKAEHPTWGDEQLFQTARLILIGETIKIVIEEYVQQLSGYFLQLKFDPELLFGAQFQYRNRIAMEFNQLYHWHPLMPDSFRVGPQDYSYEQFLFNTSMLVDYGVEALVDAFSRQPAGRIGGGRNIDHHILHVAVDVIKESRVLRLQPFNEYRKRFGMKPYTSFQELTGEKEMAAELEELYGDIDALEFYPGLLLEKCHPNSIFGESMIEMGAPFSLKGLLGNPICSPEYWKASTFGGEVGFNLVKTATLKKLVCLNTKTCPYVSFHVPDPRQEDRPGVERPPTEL

The target in experiment [2] is T2, Prostaglandin G/H synthase 2 (Homo sapiens, UniProt P35354).
T2 sequence (P35354 whole entry): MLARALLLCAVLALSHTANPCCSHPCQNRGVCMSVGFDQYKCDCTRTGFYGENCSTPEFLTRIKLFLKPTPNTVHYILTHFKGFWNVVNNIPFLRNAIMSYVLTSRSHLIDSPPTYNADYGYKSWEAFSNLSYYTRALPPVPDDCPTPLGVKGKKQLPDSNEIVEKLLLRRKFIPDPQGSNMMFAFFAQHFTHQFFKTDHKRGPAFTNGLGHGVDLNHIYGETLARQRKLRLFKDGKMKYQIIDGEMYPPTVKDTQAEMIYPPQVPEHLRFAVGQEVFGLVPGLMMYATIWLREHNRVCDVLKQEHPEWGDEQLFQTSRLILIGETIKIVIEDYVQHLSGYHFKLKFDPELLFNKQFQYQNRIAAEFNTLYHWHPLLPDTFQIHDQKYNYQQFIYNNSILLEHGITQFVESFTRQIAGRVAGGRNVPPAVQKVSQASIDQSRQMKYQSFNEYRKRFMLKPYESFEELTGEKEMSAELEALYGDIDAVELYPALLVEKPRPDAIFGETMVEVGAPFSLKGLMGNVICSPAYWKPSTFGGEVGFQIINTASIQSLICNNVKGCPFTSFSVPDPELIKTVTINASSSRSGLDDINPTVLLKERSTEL

For `Cc1ccc(Cl)c(Nc2ccccc2C(=O)NCC(=O)O)c1Cl` [2-({2-[(2,6-dichloro-3-methylphenyl)amino]phenyl}formamido)acetic acid], the IC50 in experiment [1] is 0.3 µM; in experiment [2] it was 0.4 µM.

For orientation: IC50 means the concentration that inhibits the measured activity by half.
